Converted amounts (≈) assume the structure as drawn. One block for each compound: values may come before it.
What was measured:
Assay in all cases: ≥ marks a high value that may be exact or a test limit, other limits are often not marked, values filed in µg/mL are converted to µM
[1] = system: Acinetobacter calcoaceticus ATCC 2305-5
[2] = system: Bacillus subtilis ICTA-07
[3] = system: Enterococcus faecalis WHO 14
[4] = system: Micrococcus luteus ATCC 4698
[5] = system: Pseudomonas aeruginosa ATCC 27853
[6] = system: Yersinia enterocolitica ATCC 9610
[7] = system: Acinetobacter baumannii
[8] = system: Enterobacter cloacae 2524
[9] = system: Enterobacter cloacae 6780
[10] = system: Escherichia coli 170
[11] = system: Escherichia coli 4530
[12] = system: Escherichia coli ATCC 25922
[13] = system: Klebsiella pneumoniae 1625
[14] = system: Klebsiella pneumoniae 913
[15] = system: Pseudomonas aeruginosa 4677
[16] = system: Escherichia coli ML-35
[17] = system: Salmonella enterica subsp. enterica serovar Typhimurium ATCC 14028
[18] = system: Serratia marcescens ATCC 8100
[19] = system: Staphylococcus aureus ATCC 25923
[20] = system: Bacillus subtilis KCTC 1021
[21] = system: Candida albicans
[22] = system: Escherichia coli
[23] = system: Klebsiella pneumoniae ATCC 10031
[24] = system: Proteus mirabilis ATCC 25933
[25] = system: Pseudomonas aeruginosa ATCC 9027
[26] = system: Pseudomonas putida
[27] = system: Saccharomyces cerevisiae
[28] = system: Serratia marcescens
[29] = system: Shigella dysenteriae ATCC 9752
[30] = system: Staphylococcus epidermidis ATCC 12228
[31] = system: Staphylococcus aureus ATCC 25929

- MIC [1]: ≥ 43 µM
- MIC [2]: 22 µM (≈ 152 µg/mL)
- MIC [3]: ≥ 34 µM
- MIC [4]: ≥ 43 µM
- MIC [5]: 77 µM (≈ 533 µg/mL)
- MIC [6]: ≥ 49 µM
SMILES: CC[C@H](C)[C@@H]1NC(=O)[C@H](CCCCN)NC(=O)[C@H](C(C)C)NC(=O)[C@H](CC(N)=O)NC(=O)[C@H](CC(=O)O)NC(=O)[C@@H]2CCCN2C(=O)[C@H](CC(C)C)NC(=O)CNC(=O)[C@H](Cc2ccc(O)cc2)NC(=O)[C@@H]2CSSC[C@@H]3NC(=O)[C@H](CCC(=O)O)NC(=O)[C@H]([C@@H](C)O)NC(=O)[C@H](CC(N)=O)NC(=O)[C@@H]4CSSC[C@H](NC(=O)[C@H](C)NC(=O)[C@@H]5CCCN5C(=O)[C@H](Cc5c[nH]c6ccccc56)NC(=O)[C@H](C)NC(=O)[C@H](CSSC[C@H](NC(=O)[C@H](CO)NC(=O)[C@H](Cc5ccc(O)cc5)NC(=O)[C@H](CCCCN)NC(=O)[C@@H](NC(=O)CNC(=O)[C@H](CCCN=C(N)N)NC(=O)[C@H](Cc5cnc[nH]5)NC(=O)[C@H](CCC(=O)O)NC(=O)[C@@H](NC(=O)[C@@H](NC(=O)[C@H](Cc5ccc(O)cc5)NC(=O)CNC(=O)[C@H](CC(=O)O)NC(=O)[C@@H](N)CCCCN)[C@@H](C)CC)[C@@H](C)CC)CSSC[C@@H](C(N)=O)NC(=O)[C@H](CCCCN)NC(=O)[C@H](CC(C)C)NC(=O)[C@H](CC(N)=O)NC(=O)[C@H](CC(N)=O)NC(=O)[C@H](CO)NC(=O)[C@H](CC(=O)O)NC(=O)[C@H](Cc5ccccc5)NC1=O)C(=O)N[C@@H](Cc1ccccc1)C(=O)N[C@@H](Cc1ccccc1)C(=O)NCC(=O)N[C@@H]([C@@H](C)O)C(=O)N[C@@H](CC(N)=O)C(=O)N[C@@H](CO)C(=O)N[C@@H](Cc1c[nH]c5ccccc15)C(=O)N4)NC(=O)[C@H](Cc1ccc(O)cc1)NC(=O)CNC(=O)[C@H](CO)NC(=O)[C@H](CO)NC(=O)CNC(=O)[C@H](CCCCN)NC(=O)[C@H](CCCCN)NC(=O)[C@H](CC(C)C)NC(=O)[C@H]([C@@H](C)O)NC3=O)C(=O)N[C@@H](Cc1c[nH]c3ccccc13)C(=O)N2 [KDGYIIEHRGCKYSCFFGTNSWCNTECTLKKGSSGYCAWPACWCYGLPDNVKIFDSNNLKC]

- MIC [7]: 8.84 µM (≈ 19.8 µg/mL)
- MIC [8]: 6.25 µM (≈ 14 µg/mL)
- MIC [9]: ≥ 50 µM
- MIC [10]: 12.5 µM (≈ 28 µg/mL)
- MIC [11]: ≥ 50 µM
- MIC [12]: > 50 µM
- MIC [13]: ≥ 50 µM
- MIC [14]: 25 µM (≈ 56 µg/mL)
- MIC [15]: ≥ 50 µM
SMILES: CC[C@H](C)[C@H](N)C(=O)N[C@@H](C)C(=O)N[C@@H](CO)C(=O)N[C@@H](CCCCN)C(=O)N[C@H](C(=O)N[C@@H](C)C(=O)N[C@@H](CC(N)=O)C(=O)N[C@H](C(=O)N[C@H](C(=O)N[C@@H](CCC(N)=O)C(=O)N[C@@H](CCCCN)C(=O)N[C@@H](CC(C)C)C(=O)N[C@@H](CCCCN)C(=O)N[C@@H](CCCN=C(N)N)C(=O)N[C@@H](CCCCN)C(=O)N[C@@H](C)C(=O)N[C@@H](CCCCN)C(=O)N[C@@H](CC(N)=O)C(=O)N[C@@H](C)C(=O)N[C@H](C(=O)N[C@@H](C)C(=O)O)C(C)C)C(C)C)[C@@H](C)O)C(C)C [IASKVANTVQKLKRKAKNAVA]

- MIC [12]: 64 µM (≈ 147 µg/mL)
- MIC [16]: ≥ 64 µM
- MIC [17]: 128 µM (≈ 294 µg/mL)
- MIC [18]: ≥ 128 µM
- MIC [19]: > 128 µM
SMILES: CC(C)C[C@H](NC(=O)[C@H](CCCN=C(N)N)NC(=O)[C@@H]1CCCN1C(=O)[C@@H]1CCCN1C(=O)[C@H](CCCN=C(N)N)NC(=O)[C@@H]1CCCN1)C(=O)N1CCC[C@H]1C(=O)N[C@@H](CCCN=C(N)N)C(=O)N1CCC[C@H]1C(=O)N[C@@H](CCCN=C(N)N)C(=O)N1CCC[C@H]1C(=O)N[C@@H](CCCN=C(N)N)C(=O)N1CCC[C@H]1C(=O)N[C@@H](CC(C)C)C(=O)N1CCC[C@H]1C(=O)N[C@@H](Cc1ccccc1)C(=O)N1CCC[C@H]1C(=O)N[C@@H](CCCN=C(N)N)C(=O)N1CCC[C@H]1C(=O)O [PRPPRLPRPRPRPLPFPRP]

- MIC [20]: 14.4 µM (≈ 50 µg/mL)
- MIC [21]: > 57.8 µM
- MIC [22]: 7.22 µM (≈ 25 µg/mL)
- MIC [23]: 28.9 µM (≈ 99.9 µg/mL)
- MIC [4]: 1.44 µM (≈ 5 µg/mL)
- MIC [24]: ≥ 57.8 µM
- MIC [25]: 14.4 µM (≈ 50 µg/mL)
- MIC [26]: 14.4 µM (≈ 50 µg/mL)
- MIC [27]: ≥ 57.8 µM
- MIC [17]: > 57.8 µM
- MIC [28]: ≥ 57.8 µM
- MIC [29]: 7.22 µM (≈ 25 µg/mL)
- MIC [30]: 14.4 µM (≈ 50 µg/mL)
SMILES: CC[C@H](C)[C@H](NC(=O)[C@H](CC(C)C)NC(=O)[C@H](CO)NC(=O)[C@H](Cc1ccccc1)NC(=O)[C@H](CC(C)C)NC(=O)[C@@H](N)CO)C(=O)N[C@@H](CCCCN)C(=O)N[C@@H](C)C(=O)NCC(=O)N[C@@H](C)C(=O)N[C@@H](CCCCN)C(=O)N[C@@H](Cc1ccccc1)C(=O)N[C@@H](CC(C)C)C(=O)NCC(=O)N[C@@H](CCCCN)C(=O)N[C@@H](CC(N)=O)C(=O)N[C@@H](CC(C)C)C(=O)N[C@@H](CC(C)C)C(=O)N[C@@H](CCCCN)C(=O)N[C@@H](CCC(N)=O)C(=O)NCC(=O)N[C@@H](C)C(=O)N[C@@H](CS)C(=O)N[C@@H](Cc1ccc(O)cc1)C(=O)N[C@@H](C)C(=O)N[C@@H](C)C(=O)N[C@H]1CSSC[C@@H](C(=O)O)NC(=O)[C@H](CCC(N)=O)NC(=O)[C@H](CCCCN)NC(=O)[C@H](CO)NC(=O)[C@H](C)NC(=O)[C@H](CCCCN)NC1=O [SLFSLIKAGAKFLGKNLLKQGACYAACKASKQC]

- MIC [12]: 33 µM (≈ 63.9 µg/mL)
- MIC [31]: ≥ 66 µM
SMILES: CC(C)C[C@H](NC(=O)[C@H](CO)NC(=O)[C@@H]1CCCN1C(=O)[C@H](CO)NC(=O)[C@H](CC(C)C)NC(=O)[C@@H](N)CCCCN)C(=O)NCC(=O)N1CCC[C@H]1C(=O)N[C@H](C(=O)N[C@@H](CO)C(=O)N[C@@H](CCCCN)C(=O)NCC(=O)N[C@@H](CCCCN)C(=O)N[C@@H](CC(C)C)C(=O)N[C@@H](CC(C)C)C(=O)N[C@@H](C)C(=O)NCC(=O)N[C@@H](CCC(N)=O)C(=O)N[C@@H](CCCN=C(N)N)C(N)=O)C(C)C [KLSPSLGPVSKGKLLAGQR]
